Assay results taken from patent US20150038438A1, “ANTIBACTERIAL COMPOUNDS AND METHODS FOR USE” (PTC THERAPEUTICS, INC., priority 2011, published 2015).
In brackets after ≈: the same amount, converted by molar mass.

Tests used:
Test in all cases: Antibacterial activity, microbroth dilution method (MIC)
[1] = tested on: Gram-positive Staphylococcus aureus (S. aureus) 29213; type: cell-based; details: Staphylococcus aureus, Gram-positive S. aureus 29213
Outline: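 Each strain is exposed to test compound in a microbroth dilution series; visible growth is scored macroscopically, and the lowest growth-free concentration is recorded as MIC in μg/mL.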

[2] = tested on: super sensitive Gram-negative Escherichia coli (E. coli) BAS849; type: cell-based; details: Escherichia coli; super sensitive Gram-negative E. coli BAS849; microbroth dilution; read-out: MIC, E. coli BAS849
Outline: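 Growth inhibition by microbroth dilution. MIC = lowest μg/mL with no visible growth. Strain 25922 is the control Gram-negative; BAS849 is hypersensitive.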

[3] = tested on: control Gram-negative E. coli 25922 strain; type: cell-based, Escherichia coli; details: Escherichia coli
Outline: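 Potency is reported as minimum inhibitory concentration in μg/mL, determined by broth microdilution as the lowest level of compound that stops growth visible to the eye.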

| Structure (SMILES) | MIC [1] [µg/mL] | MIC [2] [µg/mL] | MIC [3] [µg/mL] |
| --- | --- | --- | --- |
| CNC1CCN(c2ccc3c(c2)CCCc2c-3[nH]c(=O)c(C(=O)O)c2O)C1.Cl (stereo not drawn) [Cpd 8, 4-hydroxy-9-(3-(methylamino)pyrrolidin-1-yl)-2-oxo-2,5,6,7-tetrahydro-1H-benzo[6,7]cyclohepta[1,2-b]pyridine-3-carboxylic acid hydrochloride] | 12.5 to 150 | 1 to 3.5 | 3.5 to 12.5 |
| CCCNc1ccc2c(c1)CCCCc1c-2[nH]c(=O)c(C(=O)O)c1O [Cpd 128, 4-hydroxy-2-oxo-10-(propylamino)-1,2,5,6,7,8-hexahydrobenzo[7,8]cycloocta[1,2-b]pyridine-3-carboxylic acid] | 3.5 to 12.5 (≈ 10.2 to 36.5 µM) | 1 to 3.5 (≈ 2.92 to 10.2 µM) | 12.5 to 150 (≈ 36.5 to 438 µM) |
| Cl.Cn1c(CNCCO)cc2cc3c(cc21)OCCc1c-3[nH]c(=O)c(C(=O)O)c1O [Cpd 177, 4-hydroxy-10-(((2-hydroxyethyl)amino)methyl)-9-methyl-2-oxo-2,5,6,9-tetrahydro-1H-pyrido[2′,3′:4,5]oxepino[3,2-f]indole-3-carboxylic acid hydrochloride] | 12.5 to 150 | < 1 | 12.5 to 150 |
| Cn1c2c(c(O)c(C(=O)O)c1=O)CCCc1cc3c(ccn3C)cc1-2 [Cpd 134, 4-hydroxy-1,9-dimethyl-2-oxo-1,2,5,6,7,9-hexahydropyrido[3′,2′:6,7]cyclohepta[1,2-f]indole-3-carboxylic acid] | 3.5 to 12.5 (≈ 10.3 to 36.9 µM) | < 1 | 12.5 to 150 (≈ 36.9 to 443 µM) |
| COc1ccc(CNCc2cc3cc4c(cc3n2C)OCCc2c-4[nH]c(=O)c(C(=O)O)c2O)c(OC)c1.Cl [Cpd 170, 10-(((2,4-dimethoxybenzyl)amino)methyl)-4-hydroxy-9-methyl-2-oxo-2,5,6,9-tetrahydro-1H-pyrido[2′,3′:4,5]oxepino[3,2-f]indole-3-carboxylic acid hydrochloride] | 1 to 3.5 | < 1 | 1 to 3.5 |
| Cl.Cn1c(CNC(C)(C)C)cc2cc3c(cc21)CCCc1cc(C(=O)O)c(=O)[nH]c1-3 [Cpd 56, 10-((tert-butylamino)methyl)-9-methyl-2-oxo-1,2,5,6,7,9-hexahydropyrido[3′,2′:6,7]cyclohepta[1,2-f]indole-3-carboxylic acid hydrochloride] | 12.5 to 150 | < 1 | 1 to 3.5 |
| CN(C)c1ccc2c(c1)CCCc1c-2[nH]c(=O)c(C(=O)O)c1O [Cpd 3, 9-(dimethylamino)-4-hydroxy-2-oxo-2,5,6,7-tetrahydro-1H-benzo[6,7]cyclohepta[1,2-b]pyridine-3-carboxylic acid] | 3.5 to 12.5 (≈ 11.1 to 39.8 µM) | < 1 | 3.5 to 12.5 (≈ 11.1 to 39.8 µM) |
| Cl.Cn1c(CN2CCC(O)CC2)cc2cc3c(cc21)CCCc1c-3[nH]c(=O)c(C(=O)O)c1O [Cpd 28, 4-hydroxy-10-((4-hydroxypiperidin-1-yl)methyl)-9-methyl-2-oxo-1,2,5,6,7,9-hexahydropyrido[3′,2′:6,7]cyclohepta[1,2-f]indole-3-carboxylic acid hydrochloride] | 3.5 to 12.5 | < 1 | 1 to 3.5 |
| CN(C)c1ccc2c(c1)CCCc1cc(C(=O)O)c(=O)[nH]c1-2 [Cpd 2, 9-(dimethylamino)-2-oxo-2,5,6,7-tetrahydro-1H-benzo[6,7]cyclohepta[1,2-b]pyridine-3-carboxylic acid] | 12.5 to 150 (≈ 41.9 to 503 µM) | < 1 | 12.5 to 150 (≈ 41.9 to 503 µM) |
| CN(C)C1CCN(Cc2cc3cc4c(cc3n2C)CCCc2c-4[nH]c(=O)c(C(=O)O)c2O)C1.Cl.Cl (stereo not drawn) [Cpd 47, 10-((3-(dimethylamino)pyrrolidin-1-yl)methyl)-4-hydroxy-9-methyl-2-oxo-1,2,5,6,7,9-hexahydropyrido[3′,2′:6,7]cyclohepta[1,2-f]indole-3-carboxylic acid dihydrochloride] | 3.5 to 12.5 | < 1 | 3.5 to 12.5 |
| CNCc1cc2cc3c(cc2n1C)CCCc1cc(C(=O)O)c(=O)[nH]c1-3.Cl [Cpd 53, 9-methyl-10-((methylamino)methyl)-2-oxo-1,2,5,6,7,9-hexahydropyrido[3′,2′:6,7]cyclohepta[1,2-f]indole-3-carboxylic acid hydrochloride] | 12.5 to 150 | < 1 | 1 to 3.5 |
| CCCCCCCCCNCc1cc2cc3c(cc2n1C)CCCc1c-3[nH]c(=O)c(C(=O)O)c1O.Cl [Cpd 141, 4-hydroxy-9-methyl-10-((nonylamino)methyl)-2-oxo-1,2,5,6,7,9-hexahydropyrido[3′,2′:6,7]cyclohepta[1,2-f]indole-3-carboxylic acid hydrochloride] | 3.5 to 12.5 | 1 to 3.5 | 12.5 to 150 |
| Cl.O=C(O)c1c(O)c2c([nH]c1=O)-c1ccc(NC3CCNCC3)cc1CCC2 [Cpd 118, 4-hydroxy-2-oxo-9-(piperidin-4-ylamino)-2,5,6,7-tetrahydro-1H-benzo[6,7]cyclohepta[1,2-b]pyridine-3-carboxylic acid hydrochloride] | 12.5 to 150 | 12.5 to 150 | 12.5 to 150 |
| CNCc1cc2cc3c(cc2n1C)NCCc1c-3[nH]c(=O)c(C(=O)O)c1O.Cl [Cpd 99, 4-hydroxy-9-methyl-10-((methylamino)methyl)-2-oxo-1,2,5,6,7,9-hexahydropyrido[2′,3′:4,5]azepino[3,2-f]indole-3-carboxylic acid hydrochloride] | 12.5 to 150 | 1 to 3.5 | 12.5 to 150 |
| Cl.Cn1c(CN2CCC(O)C2)cc2cc3c(cc21)CCCc1c-3[nH]c(=O)c(C(=O)O)c1O (stereo not drawn) [Cpd 51, 4-hydroxy-10-((3-hydroxypyrrolidin-1-yl)methyl)-9-methyl-2-oxo-1,2,5,6,7,9-hexahydropyrido[3′,2′:6,7]cyclohepta[1,2-f]indole-3-carboxylic acid hydrochloride] | 3.5 to 12.5 | < 1 | 1 to 3.5 |
| CC1Cc2cc3c(cc2-c2[nH]c(=O)c(C(=O)O)c(O)c21)OCO3 (stereo not drawn) [Cpd 106, 4-hydroxy-5-methyl-2-oxo-1,2,5,6-tetrahydro-[1,3]dioxolo[4′,5′:4,5]benzo[1,2-h]quinoline-3-carboxylic acid] | 12.5 to 150 (≈ 39.6 to 476 µM) | 1 to 3.5 (≈ 3.17 to 11.1 µM) | 12.5 to 150 (≈ 39.6 to 476 µM) |
| Cl.Cn1c(CN2CCC2)cc2cc3c(cc21)CCc1c-3[nH]c(=O)c(C(=O)O)c1O [Cpd 21, 9-(azetidin-1-ylmethyl)-4-hydroxy-8-methyl-2-oxo-2,5,6,8-tetrahydro-1H-indolo[6,5-h]quinoline-3-carboxylic acid hydrochloride] | 12.5 to 150 | 1 to 3.5 | 3.5 to 12.5 |
| Cn1ccc2cc3c(cc21)CCCc1c-3[nH]c(=O)c(C(=O)O)c1O [Cpd 17, 4-hydroxy-9-methyl-2-oxo-1,2,5,6,7,9-hexahydropyrido[3′,2′:6,7]cyclohepta[1,2-f]indole-3-carboxylic acid] | 1 to 3.5 (≈ 3.08 to 10.8 µM) | < 1 | 1 to 3.5 (≈ 3.08 to 10.8 µM) |
| Cl.Cn1c(CNC2CCC2)cc2cc3c(cc21)OCCc1c-3[nH]c(=O)c(C(=O)O)c1O [Cpd 172, 10-((cyclobutylamino)methyl)-4-hydroxy-9-methyl-2-oxo-2,5,6,9-tetrahydro-1H-pyrido[2′,3′:4,5]oxepino[3,2-f]indole-3-carboxylic acid hydrochloride] | 3.5 to 12.5 | < 1 | < 1 |
| Cl.Cl.Cn1c(CNCCN)cc2cc3c(cc21)OCCc1c-3[nH]c(=O)c(C(=O)O)c1O [Cpd 180, 10-(((2-aminoethyl)amino)methyl)-4-hydroxy-9-methyl-2-oxo-2,5,6,9-tetrahydro-1H-pyrido[2′,3′:4,5]oxepino[3,2-f]indole-3-carboxylic acid dihydrochloride] | 12.5 to 150 | 3.5 to 12.5 | 12.5 to 150 |
| CCNCc1cc2cc3c(cc2n1C)NCCc1c-3[nH]c(=O)c(C(=O)O)c1O.Cl [Cpd 100, 10-((ethylamino)methyl)-4-hydroxy-9-methyl-2-oxo-1,2,5,6,7,9-hexahydropyrido[2′,3′:4,5]azepino[3,2-f]indole-3-carboxylic acid hydrochloride] | 12.5 to 150 | 1 to 3.5 | 12.5 to 150 |
| CCCNCc1cc2cc3c(cc2n1C)CCCc1c-3[nH]c(=O)c(C(=O)O)c1O.Cl [Cpd 44, 4-hydroxy-9-methyl-2-oxo-10-((propylamino)methyl)-1,2,5,6,7,9-hexahydropyrido[3′,2′:6,7]cyclohepta[1,2-f]indole-3-carboxylic acid hydrochloride] | 3.5 to 12.5 | < 1 | < 1 |
| CC1CCc2cc(N3CCC(N(C)C)C3)ccc2-c2[nH]c(=O)c(C(=O)O)c(O)c21.Cl (stereo not drawn) [Cpd 12, 9-(3-(dimethylamino)pyrrolidin-1-yl)-4-hydroxy-5-methyl-2-oxo-2,5,6,7-tetrahydro-1H-benzo[6,7]cyclohepta[1,2-b]pyridine-3-carboxylic acid hydrochloride] | 12.5 to 150 | 1 to 3.5 | 12.5 to 150 |
| CN(C)C1CCCN(c2ccc3c(c2)CCCc2c-3[nH]c(=O)c(C(=O)O)c2O)C1.Cl (stereo not drawn) [Cpd 117, 9-(3-(dimethylamino)piperidin-1-yl)-4-hydroxy-2-oxo-2,5,6,7-tetrahydro-1H-benzo[6,7]cyclohepta[1,2-b]pyridine-3-carboxylic acid hydrochloride] | 12.5 to 150 | 3.5 to 12.5 | 12.5 to 150 |
| COC1CCN(Cc2cc3cc4c(cc3n2C)CCCc2c-4[nH]c(=O)c(C(=O)O)c2O)C1.Cl (stereo not drawn) [Cpd 158, 4-hydroxy-10-((3-methoxypyrrolidin-1-yl)methyl)-9-methyl-2-oxo-1,2,5,6,7,9-hexahydropyrido[3′,2′:6,7]cyclohepta[1,2-f]indole-3-carboxylic acid hydrochloride] | 3.5 to 12.5 | < 1 | 1 to 3.5 |
| CCNCc1cc2cc3c(cc2n1C)[C@H](O)[C@H](O)Cc1c-3[nH]c(=O)c(C(=O)O)c1O.Cl (relative stereo) [Cpd 71, (cis)-10-((ethylamino)methyl)-4,6,7-trihydroxy-9-methyl-2-oxo-1,2,5,6,7,9-hexahydropyrido[3′,2′:6,7]cyclohepta[1,2-f]indole-3-carboxylic acid hydrochloride] | 12.5 to 150 | 12.5 to 150 | 12.5 to 150 |
